Test results published in patent US8768431B2, “Systems and methods for tissue imaging” (The Regents of the University of Michigan, priority 2007, dated 2014).

Columns and labels:
9L tumors [1] = assay: fDM / diffusion MRI of intracerebral 9L tumors after BCNU; format: in vivo, rat; settings: for group mean VR: ±SEM
Experimental: (§1) Intracranial Tumor Implantation. All animal works were carried out in the animal facility of the University of Michigan (Ann Arbor, Mich.) in accordance with federal, local, and institutional guidelines. Intracerebral brain tumors were implanted in male Fischer 344 rats (Charles River Breeding Laboratories, Wilmington, Mass.) weighing between 125 and 150 g. Animals were anesthesized by intraperitoneal administration of a ketamine (87 mg/kg)/xylazine (13 mg/kg) mixture. A small skin incision was made over the right hemisphere, and a 1-mm-diameter burr hole was drilled through the skull. A sterile suspension of 1×10^5 9L cells in 5 μl of serum-free medium was introduced through a 27-gauge needle inserted to a depth of 3 mm. Rats were allowed to recover after tilling the burr hole with bone wax and suturing the skin closed.
(§2) Chemotherapy. Thirty-three animals with 9L tumors were entered into the study. When in vivo tumor volumes had reached […] were divided into four groups. Group 1 received 0.1 ml of drug vehicle (10% ethanol) and was used as a control group (n=7). Groups 2 to 4 received 6.65 mg/kg BCNU (n=7), 13.3 mg/kg BCNU (n=11), and 26.6 mg/kg BCNU (n=8), respectively, diluted in 10% ethanol. All treatments were administered by a single intraperitoneal injection on day 0. T2-weighted (T2, MRI transverse relaxation time) and diffusion MRI were performed every other day posttherapy to measure volumetric and cell density changes, respectively. Animal survival data were also obtained for all groups.
(§3) Diffusion MRI. Maps of tumor ADC values were acquired every other day up to 14 days posttherapy using a previously described method (see, e.g., Chenevert T L, et al., J Natl Cancer Inst. 2000; 92:2029-2036; herein incorporated by reference in its entirety). Briefly, a trace diffusion-weighted multislice spin echo sequence (with motion compensation and navigator echo) was used to acquire 13 slices with two different diffusion weightings [b1=100 sec/mm^2; b2=1248 sec/mm^2; image slice thickness=1 mm; image matrix=128×128 (0-256); field of view=30×30 mm; echo time=60 milliseconds]. During all MRI procedures, the animals were anesthesized with 1.5% isoflurane, and body temperature was maintained at 37° C. using a heated water-recirculating pad. The images acquired with b1 were essentially T2-weighted images, and these were used to segment the tumor from the normal brain for volumetric analysis using an “in-house” region drawing tool developed in MATLAB (Natick, Mass.).
Image Registration and fDM. An important part of fDM analysis is the registration of parametric ADC maps acquired posttherapy to baseline ADC maps acquired before treatment. Image registration was performed using an automated linear affine coregistration algorithm (MIAMI Fuse; University of Michigan, Ann Arbor, Mich.) to maximize mutual information between the two temporally distinct three-dimensional data sets (see, e.g., Meyer C R, et al., Med Image Anal. 1997; 1:195-206; herein incorporated by reference in its entirety). Following registration and tumor segmentation of voxels within the tumor both at baseline and on day 4, fDM statistics were calculated. Firstly, ADC values of voxels posttherapy were plotted as a function of baseline ADC values. These tumor voxels were then further segmented into three regions based on an upper threshold and a lower threshold of ADC change. That is, tumor voxels that had increased ADC above the upper threshold were region I (VR, red voxels), voxels that had decreased below the lower threshold were region 2 (VB, blue voxels), and all other voxels were region 3 (VG, green voxels). A comparison between treatment groups and the measurement of fDM dose dependence was accomplished to optimize the sensitivity of the thresholds used (±0.4×10^−9 m^2/sec). Normalized volumes were then calculated for each animal, and group statistics were calculated.

9L tumors [2] = assay: Histopathology (H&E) of fDM regions of 9L tumors; format: in vivo, rat; settings: 6.67 mg/kg BCNU; ×40 objective
Experimental: Histopathology. In a separate study consisting of eight animals, two animals per treatment group were imaged pretreatment and again at 6 to 7 days posttherapy. Following the second imaging session, animals were euthanized, and the brains were fixed in 10% paraformaldehyde. After 48 hours, fixed tissues were transferred to 70% ethanol and embedded in paraffin. Formalin-fixed paraffin-embedded specimens were serially sectioned and slide-mounted. Sections were stained with hematoxylin and eosin (H&E) and compared to fDMs.

9L tumors [3] = assay: Animal survival of rats with intracerebral 9L tumors; format: in vivo, rat; settings: for median survival: rat 9L tumors, control 7 days
Experimental: as §1, §2
(§4) Tumor Cell Kill Calculations and Statistical Analysis. The quantification of tumor cell kill from serially volumetric imaging data for each animal was accomplished as previously described (see, e.g., Ross B D, et al., Proc Natl Acad Sci USA. 1998; 95:7012-7017; herein incorporated by reference in its entirety). In brief, log(cell kill)[…]log10[Vpre/Vpost], where V represents the tumor volume from MRI. Linear least squares analysis was used to measure the statistical significance of trends in the BCNU dose dependence of fDM volume, animal survival, and log cell kill, and in the correlation of fDM response with survival and cell kill. When two groups were compared, a one-tailed Student's /test was used. Both linear least squares and Student's t test were performed using Microsoft Excel (Microsoft, Redmond, Wash.). To compare the median survival of all four animal groups, a log rank test was performed using Prism (GraphPad Software, Inc., San Diego, Calif.).

9L tumor cells = assay: MRI tumor volume and log cell kill of 9L tumors; format: in vivo, rat
Experimental: as §2, §3, §4

[4] = test system: PC3^Luc metastatic bone lesions; assay: MRI tumor volume of PC3Luc bone lesions; format: in vivo, SCID mice
Excerpt: (§5) Magnetic Resonance Imaging. […] For MRI examination, mice were anesthetized with a 2% […] and maintained at 37 C, using a heated water bed, inside a 9.4-T Varian MR scanner (120-mm clear horizontal bore, Varian, Palo Alto, Calif.) and a double-tuned volume radiofrequency coil. A trace diffusion-weighted multi-slice spin echo sequence was used to acquire 15 slices with two different diffusion weightings (b1=184 s/mm^2, =1106 s/mm^2, slice thickness=0.5 mm, image matrix64×128, field of view=15×15 mm; TE=40 ms, TR=3.5 s). The z-gadient first moment was zeroed to reduce the dominant source of motion artifact as well as a 32-point navigator echo was prepended to each phase-encode echo. The phase deviation of each navigator echo relative to their mean was subtracted from the respective image echoes prior to the phase-encode Fourier transform. Images were acquired prior to treatment and subsequently 2 times per week. The low b-factor images were essentially T2-weighted to allow tumor volume measurements. The tumor boundary was manually defined on each slice and then integrated across slices to provide a volume estimate.

PC3^Luc tumor cells = assay: Bioluminescence imaging of PC3Luc metastatic prostate cancer model; format: in vivo, SCID mice; settings: docetaxel 40 mg/kg/wk×3, n=9; controls rose continuously
Experimental: Cell Lines. PC3 cells were transfected with a luciferase-encoding pLazarus retroviral construct using Fugene 6 (Roche Applied Science, Indianapolis, Ind.) as per manufacturer's instructions. Wildtype PC3 cells were cultured in RPMI-1640 supplemented with 10% FBS whereas transfected cells (PC3^Luc were maintained in selection media supplemented with 200 μg/ml G418 (Invitrogen; Carlsbad, Calif.).
(§6) Mice. Male SCID mice (Charles River Laboratories, Wilmington, Mass.) were housed in specific pathogen free rooms at The University of Michigan AAALAC, International accredited facilities. For implantation of PC3^Luc cells, mice were anesthetized with 1.75% isotluorane/air anesthesia and 2×10^5 cells in 100 μl of sterile Dulbecco's PBS lacking Ca^+2and Mg^+2 (DPBS) were administered into the left ventricle of the heart.
Bioluminescence Detection. […] Bioluminescence studies were initiated prior to treatment for baseline values and performed throughout the experiment. For these studies, mice were anesthetized with a 2% isofluorane/air mixture and given a single i.p. dose of 150 mg/kg D-luciferin (Promega; Madison, Wis.) in normal saline. […] Results were analyzed using Living Image® software provided with the Xenogen imaging system. Signal intensity was quantified as the sum of all detected photon counts within a uniform region-of-interest (ROI) manually placed during data post processing.

[5] = test system: PC3^Luc metastatic bone lesions; assay: fDM analysis of metastatic bone lesions of PC3Luc model; format: in vivo, SCID mice; settings: for percentage of increased ADC (fDM), representative treated animal: docetaxel 40 mg/kg/wk×3
Experimental: as §6, §5
Image Registration and fDM. An important part of fDM analysis is the registration of post-treatment ADC maps to baseline pretreatment ADC maps. Image registration was performed using an automated linear affine coregistration algorithm to maximize mutual information between the two temporally distinct three-dimensional data sets (see, e.g., Meyer C R, et al., Med Image Anal 1997; 1:195-206; herein incorporated by reference in its entirety). Following registration and segmentation of voxels within the tumor both at baseline and on day 4, fDM statistics were calculated (I-Response™, Cedara Software, Mississauga, Ontario). Firstly, ADC values of voxels post therapy were plotted as a function of baseline ADC values. These voxels were then further segmented into three regions based on an upper and lower threshold of ADC change. Tumor voxels with an ADC increase above the upper threshold were depicted as red, whereas voxels that had decreased below the lower threshold were depicted as blue.

[6] = 6.65 mg/kg BCNU, day 4 posttreatment
[7] = 26.6 mg/kg BCNU, day 4 posttreatment
[8] = p<0.05, treated n=7 vs control n=5

O=NN(CCCl)C(=O)NCCCl [BCNU]
mean ADC change (9L tumors [1]; 6.65 mg/kg BCNU, day 4, control −0.8±2.7%): 10.7±2.2% | group mean VR (9L tumors [1]; 6.65 mg/kg BCNU, day 4, control 3.9±1.7): 10.6±2.8% | VB (tumor volume with decreased ADC), representative animal (9L tumors [1]; [6]): 2.6% | VR (tumor volume with increased ADC), representative animal (9L tumors [1]; [6]): 7.7% | mean ADC change (ΔADC) (9L tumors [1]; 13.3 mg/kg BCNU, day 4): 22.9±5.3% | group mean VR (9L tumors [1]; 13.3 mg/kg BCNU, day 4): 28.7±8.0% | VR (tumor volume with increased ADC), representative animal (9L tumors [1]; 13.3 mg/kg BCNU, day 4 posttreatment): 30% | mean ADC change (9L tumors [1]; 26.6 mg/kg BCNU, day 4): 49.0±9.7% | group mean VR (9L tumors [1]; 26.6 mg/kg BCNU, day 4): 62.0 ±9.0% | VB (tumor volume with decreased ADC), representative animal (9L tumors [1]; [7]): 0.3% | VR (tumor volume with increased ADC), representative animal (9L tumors [1]; [7]): 90.6% | best-fit gradient of VR as a function of drug dose (9L tumors [1]; day 4 posttreatment, threshold ±0.4×10^−9 m^2/sec, P=5.8×10^−6): 2.30 ± 0.40 kg/mg | active mitoses in low-diffusion (VB) region (9L tumors [2]): 153 mitoses in 10 high-power fields | mitoses in VR region (9L tumors [2]): 96 mitoses in 10 high-power fields | median survival (9L tumors [3]; 6.65 mg/kg BCNU single i.p.): 13 days posttherapy | median survival (9L tumors [3]; 13.3 mg/kg BCNU single i.p.): 23.5 days posttherapy | median survival (9L tumors [3]; 26.6 mg/kg BCNU single i.p.): 35.5 days posttherapy | animal survival relative to the control group (9L tumors [3]; 6.65-26.6 mg/kg BCNU, log rank P<0.05): dose-dependent increase in animal survival | log cell kill (9L tumor cells; 6.65 mg/kg BCNU, control −0.09±0.04): −0.25±0.08 | log cell kill (9L tumor cells; 13.3 mg/kg BCNU): 1.28±0.18 | log cell kill (9L tumor cells; 26.6 mg/kg BCNU): 3.22±0.51 | gradient of least squares fit, normalized tumor volume as a function of dose (9L tumor cells; 4 days posttreatment, 0-26.6 mg/kg BCNU, P=0.004): −4.0±1.3

CC(=O)O[C@@]12CO[C@@H]1C[C@H](O)[C@@]1(C)C(=O)[C@H](O)C3=C(C)[C@@H](OC(=O)[C@H](O)[C@@H](NC(=O)OC(C)(C)C)c4ccccc4)C[C@@](O)([C@@H](OC(=O)c4ccccc4)[C@H]21)C3(C)C [docetaxel]
MRI tumor volumes, outcome of therapy ([4]; control tumors kept growing, treated tumors did not): efficacious | time at which tumor volumes differ significantly from control [4, 8]: 11 day post-treatment initiation | mean photon counts (luciferase activity) (PC3^Luc tumor cells): remained stable throughout the experiment | percentage of increased ADC (fDM), representative treated animal ([5]; day 7 post initiation): 4.0% | percentage of increased ADC (fDM), representative treated animal ([5]; day 14 post initiation): 30.0% | percentage of increased ADC (fDM), representative treated animal ([5]; day 18 post initiation): 53.7% | time at which fDM values differ significantly from control [5, 8]: 7 days post-treatment | mean changes in tumor diffusion by fDM ([5]; three week treatment period, treated n=7): progressively increasing fDM diffusion changes
